Results taken from a melting point compilation (Tetko et al.).

SMILES	melting point [°C]
NC(=O)c1[nH]cnc1N	249 to 251
O=C(O)c1ccccc1-n1cnnn1	190 to 194
Cn1cc(C(=O)c2cccc(F)c2)cn1	103 to 105
O=c1[nH]nc(-c2cccs2)o1	116 to 118
COC(=O)c1nc2n(n1)-c1ccccc1S(=O)(=O)N2	262 to 264
N#Cc1ccc(Oc2cccc(Cl)c2Cl)nc1	143 to 145
O=C(O)c1csc(Cc2ccccc2F)n1	154 to 156
CCOC(=O)Cn1[nH]cc(C#N)c1=N	121 to 123
NC(=O)c1cc(N)nc2ccccc12	199 to 201
Nc1ccc2c(c1)NC(=O)CS2	218 to 222
COc1cc(Br)[nH]n1	70 to 72
OC(c1ccccc1)c1cccnc1 (centres undefined)	59 to 61
Nc1cc(Br)c(S(N)(=O)=O)cc1[N+](=O)[O-]	268 to 270
N#Cc1ccc(Oc2ccc(F)c(Cl)c2)c(F)c1	97 to 99
O=C(O)Cc1ccc(C(F)(F)F)cc1[N+](=O)[O-]	145 to 147
CC(=O)N1CCN(c2ccccc2C=O)CC1	86 to 88
CC(Cl)C(=O)Nc1ccc(S(=O)(=O)N2CCCCC2)cc1 (centres undefined)	130 to 135
O=C(O)CNC(=O)NCC1CCCC1	138 to 140
COCCn1nnnc1N	114 to 116
N#Cc1ccc(C(F)(F)F)nc1Cl	38 to 40
Cc1nn(-c2ccc(Br)cc2)cc1C(=O)O	229 to 231
Cc1nc(-c2ccc(Cl)s2)sc1C(=O)O	255 to 257
O=C1CCc2cc([N+](=O)[O-])ccc2N1	201 to 203
COc1ccc(C=O)cc1OCC1CC1	68 to 70

SMILES	melting point [°C]
c1cn2c(n1)CN(C1CCNCC1)CC2	63 to 65
C#CC#CCCCCCC(=O)O	35 to 37
O=C(O)CC1SC(=NN=Cc2ccc(Br)s2)NC1=O (centres undefined)	278 to 280
NC(=O)Cn1cnc2cc(C(=O)O)ccc21	298 to 300
CNC(=O)CC1CCNCC1	105 to 107
Nc1cccc(S(=O)(=O)Nc2ccccc2Cl)c1	110 to 112
O=C1NC(=O)C(c2cccc(Br)c2)N1 (centres undefined)	185 to 187
O=S(=O)(Cl)c1ccc(OCC2CCCCC2)cc1	82 to 84
O=C(O)c1oc2cc(Cl)ccc2c1-c1ccccc1	229 to 231
Cc1ccc(NS(=O)(=O)c2ccc(N)cc2)cc1C	150 to 152
Cc1ccc(-c2csc(CN)n2)cc1	72 to 74
Nc1ccc2oc(CO)nc2c1	113 to 115
Cc1sc(N)nc1-c1ccc(OC(F)F)cc1	105 to 107
COc1nc2cc(N)ccc2o1	123 to 125
CC(C)(C)OC(=O)NC1CCC2CNCC21 (centres undefined)	109 to 111
COc1ccc(C=O)cc1OCc1ccc([N+](=O)[O-])cc1	109 to 111
CC(=O)Cn1cnc(C)c1C	80 to 82
CS(=O)(=O)N1CCNC(=O)C1	164 to 166
NS(=O)(=O)CCCC(F)(F)F	66 to 68
COC(=O)c1sc(N)nc1C(C)(C)C	158 to 160
O=C(O)c1ccc(-n2cnnn2)cc1Cl	179 to 181
CC1(C)C(O)CC1O (centres undefined)	104 to 106
O=C(O)C1CCN(c2ccc3cccc(O)c3n2)CC1	281 to 283
O=C(CCl)n1nc2ccccn2c1=O	164 to 166

SMILES	melting point [°C]
O=C1NCCS1	51 to 53
COc1cc(Br)ccc1C(N)=O	134 to 136
CC(C)(C)c1ccc(-c2nnc(N)[nH]2)cc1	213 to 215
O=C(O)CN1N=C(C(F)(F)F)CC1=O	218 to 220
CC1(C)OC(=O)C(C(=O)C2CCCC2)C(=O)O1	63 to 65
O=C(O)c1csc(-c2ccccc2)n1	160 to 161
CC(=O)N1CCN(Cc2ccc(C(=O)O)cc2)CC1	229 to 231
ClCc1ccc(-c2nc3cc(Cl)ccc3s2)cc1	164 to 166
CC(C)(C)Cc1noc2ncc(C(=O)O)cc12	231 to 233
CCN(CC)S(=O)(=O)c1ccc(N2CCNCC2)c([N+](=O)[O-])c1	131 to 133
Cc1nc2ccccc2n1CCO	147 to 149
CCOC(=O)Cn1cc(Br)ccc1=O	81 to 83
O=C(CCc1ccccc1)Cc1ccccc1	41 to 43
Cc1cc(S(=O)(=O)Cl)ccc1OCCCC(=O)O	135 to 137
CC(C)(C)NS(=O)(=O)c1ccc(NN)nc1	124 to 126
O=C(Nc1ccccc1Cl)c1c[nH]c2ccccc12	213 to 215
O=C(CC1(C(=O)O)CCCCC1)NC1CC1	151 to 153
NS(=O)(=O)c1ccc(F)cc1[N+](=O)[O-]	153 to 155
O=C(CNC1CC1)NC1CC1	47 to 49
CNC(C)C(=O)O (centres undefined)	268 to 270
Nc1c(-c2ccccn2)nc2ccccn12	199 to 201
NC(=S)CF	53 to 55
O=C(c1nc2ccccc2s1)C(F)(F)F	83 to 85
Cc1c(Cl)cc(C(=O)O)cc1S(=O)(=O)Cl	167 to 169

SMILES	melting point [°C]
Cc1nc(N)ccc1I	99 to 100
O=C(O)c1ccc(OCC2CC2)nc1	156 to 158
CC(C)(C)OC(=O)N1CCCc2cccc(O)c21	60 to 62
CC(Cl)C(=O)NC1CCCC(C)C1C (centres undefined)	163 to 165
CC(C)(C(=O)O)c1ccc(-c2ccccc2)cc1	173 to 175
CC(C)(C)CC(=O)Nc1ccc(CC(=O)O)cc1	179 to 181
Nc1ccc2[nH]c(=O)sc2c1	221 to 223
Cc1csc(CC(=O)NN)n1	73 to 75
Nc1nnc(-c2cc3c(s2)CCCC3)o1	266 to 268
O=C(O)C1CCCN1C(=O)Nc1ccc(F)cc1 (centres undefined)	163 to 165
NNC(=O)c1cccc2ncccc12	130 to 132
O=C(O)c1nn(-c2ccccc2)cc1CCCO	119 to 121
CS(=O)(=O)OC1CCCC(S(C)(=O)=O)C1 (centres undefined)	119 to 121
COc1ccc(Br)cc1C(=O)CBr	92 to 94
O=C1CCSc2cc(F)c(F)cc21	93 to 95
O=C(O)CCCNc1ccc(C(F)(F)F)cn1	91 to 93
O=S(=O)(c1ccc2c(c1)CCN2)N1CCCCC1	171 to 173
CC(=O)N1CCN(c2ccc(C(=O)O)cc2[N+](=O)[O-])CC1	262 to 264
NS(=O)(=O)CCc1ccccc1	122 to 124
OCCOC1CCNCC1	61 to 63
CCOc1ccccc1OCCC(=O)O	97 to 99
CNC(=O)c1cc(Oc2cccc(O)c2)ccn1	124 to 126
Cc1cc(C(=O)CCl)c(C)n1-c1ccc(F)c(Cl)c1	115 to 117
CCCCn1c(SCC(=O)O)nc2cc(C(F)(F)F)ccc21	120 to 122

SMILES	melting point [°C]
O=C(O)c1c(Cl)nc2sccn12	181 to 183
O=C(O)c1ccc(F)cc1I	144 to 146
O=Cc1cccc(Br)c1OC(F)F	49 to 51
COC(=O)CCNc1ccc(F)cc1[N+](=O)[O-]	76 to 78
CC(=O)OCC(=O)[C@@]1(O)CC[C@H]2[C@@H]3CCC4=CC(=O)CC[C@]4(C)[C@H]3[C@@H](O)C[C@@]21C	219 to 221
N#Cc1cccnc1N1CCC(C(N)=O)CC1	177 to 179
N#CC1(NC(=O)CCl)CCCCC1	130 to 132
O=C(Nc1ccc(O)cc1)c1cccs1	166 to 168
CS(=O)(=O)CCc1ccc(N)cc1	93 to 95
COC(=O)c1ccc(S(N)(=O)=O)s1	150 to 152
O=C(O)c1sc(-c2ccccc2)cc1OCC(=O)N1CCCCC1	164 to 166
COc1cc(C=O)ccc1OCc1cccs1	79 to 81
COC(=O)Nc1ccc(CO)cc1	79 to 81
CC(=O)Nc1ccc(C(=O)CCl)c(F)c1	128 to 130
Cc1cc(I)ccc1[N+](=O)[O-]	79 to 81
COc1ccc(I)cc1F	32 to 34
O=S(=O)(c1cccs1)N1CCNCC1	98 to 100
O=C(O)c1ccc(NS(=O)(=O)C(F)(F)F)cc1	226 to 228
O=C(O)C1CC(=O)N(c2ccccc2)C1 (centres undefined)	191 to 193
Nc1cncc(Br)c1Cl	96 to 98
Cc1cccnc1NC1CCCCC1	81 to 83
CC(=O)CC(=O)Nc1ccc(Br)cc1	137 to 139
O=C(Nc1cnccn1)c1ccc(Br)cc1	195 to 197
Cc1ccc(Cl)cc1C(N)=O	150 to 152

SMILES	melting point [°C]
Cc1ccc(-c2ccc(C(=O)O)c(F)c2)cc1	247 to 249
CC1(Br)CS(=O)(=O)CC1Br (centres undefined)	126 to 128
O=C(O)c1cc(Cl)c2cc(Cl)ccc2n1	194 to 196
O=C(O)CCc1nc2cc(Br)ccc2s1	154 to 156
COCC(C)n1c(SCC(=O)O)nnc1-c1ccccc1 (centres undefined)	139 to 141
N#Cc1c(Cl)nc2ccccn12	181 to 183
O=[N+]([O-])c1cc(F)ccc1S(=O)(=O)Cl	40 to 44
c1ccc2[nH]c(C3CCNCC3)cc2c1	192 to 194
CNc1ccnc(C)c1	59 to 61
CC(C)(C)C(=O)Nc1cn[nH]c1	200 to 202
CC(C)C(NC(=O)c1ccccc1)c1nn[nH]n1 (centres undefined)	176 to 178
COc1nc(Cl)c(C=O)s1	43 to 45
O=C(Nc1ccccc1)c1ccc(Cl)nn1	213 to 215
Cc1ccc(Oc2ccc3[nH]cccc-3c2=N)c(Br)c1	259 to 261
NNC(=O)CNc1cccc(C(F)(F)F)c1	80 to 82
Cc1cc(Cl)cc2nc(S)oc12	253 to 255
CSCCC(NC(=O)c1ccc(Cl)cc1Cl)C(=O)O (centres undefined)	79 to 81
O=C1CCCOc2c1ccc(Cl)c2Cl	103 to 105
Cc1ccc(C(=O)c2c(N)sc3c2CCC3)c(C)c1	163 to 165
CC(N)C(=O)Nc1ccc(Cl)cc1 (centres undefined)	84 to 86
CN(C)C(=O)CO	32 to 34
O=c1[nH]c(-c2cccs2)no1	183 to 185
O=C(O)c1ccc(Oc2ccc(C(F)(F)F)cn2)cc1	218 to 220
Cc1nn(-c2ccccc2)c(Oc2ccc(F)cc2)c1C=O	105 to 107
